Experimental data as given in patent US12696901B2, “Pesticidally active heterocyclic derivatives with sulfur containing substituents” (SYNGENTA CROP PROTECTION AG, priority 2020, dated 2026).

What was measured:
Format in all cases: in vivo
[1] = tested on: Diabrotica balteata (Corn Root Worm); test: Activity against Diabrotica balteata (corn root worm), corn seedlings on filter paper in cups; conditions: 120 h, application rate 3 ppm, L2 larva, 5 days after treatment, read-out: effect in at least one of the two categories (mortality or growth inhibition)
Description: Example B12: Activity Against Diabrotica Balteata (Corn Root Worm)
Three corn seedlings were placed on wetted filter paper in plastic cups, and 3 ml of diluted test solutions were pipetted onto them. The cups were infested with 10 L2 larva and checked for mortality and growth regulation 5 days after treatment.

[2] = tested on: Euschistus heros (Neotropical Brown Stink Bug); test: Activity against Euschistus heros (neotropical brown stink bug), sprayed soybean leaves; conditions: 120 h, application rate 200 ppm, N2 nymphs, 5 days after infestation, read-out: effect in at least one of the two categories (mortality or growth inhibition)
Description: Example B3: Activity Against Euschistus heros (Neotropical Brown Stink Bug)
Soybean leaves on agar in 24-well microtiter plates were sprayed with aqueous test solutions prepared from 10,000 ppm DMSO stock solutions. After drying the leaves were infested with N2 nymphs. The samples were assessed for mortality and growth inhibition in comparison to untreated samples 5 days after infestation.

[3] = tested on: Diabrotica balteata (Corn Root Worm); test: Activity against Diabrotica balteata (corn root worm), sprayed maize sprouts on agar; conditions: 96 h, application rate 200 ppm, L2 larvae, 4 days after infestation, read-out: effect in at least one of the two categories (mortality or growth inhibition)
Description: Example B2: Activity Against Diabrotica balteata (Corn Root Worm)
Maize sprouts placed onto an agar layer in 24-well microtiter plates were treated with aqueous test solutions prepared from 10,000 ppm DMSO stock solutions by spraying. After drying, the plates were infested with L2 larvae (6 to 10 per well). The samples were assessed for mortality and growth inhibition in comparison to untreated samples 4 days after infestation.

[4] = tested on: Myzus persicae (Green Peach Aphid); test: Activity against Myzus persicae (green peach aphid), feeding/contact activity; conditions: 144 h, application rate 200 ppm, mixed ages, 6 days after infestation
Description: Example B6: Activity Against Myzus persicae (Green Peach Aphid) Feeding/Contact Activity
(§1) Sunflower leaf discs were placed onto agar in a 24-well microtiter plate and sprayed with aqueous test solutions prepared from 10,000 ppm DMSO stock solutions. After drying, the leaf discs were infested with an aphid population of mixed ages. The samples were assessed for mortality 6 days after infestation.

[5] = tested on: Spodoptera littoralis (Egyptian Cotton Leaf Worm); test: Activity against Spodoptera littoralis (Egyptian cotton leaf worm), sprayed cotton leaf discs; conditions: foliar, 72 h, application rate 200 ppm, L1 larvae, 3 days after infestation
Description: Example B7: Activity Against Spodoptera littoralis (Egyptian Cotton Leaf Worm)
Cotton leaf discs were placed onto agar in 24-well microtiter plates and sprayed with aqueous test solutions prepared from 10,000 ppm DMSO stock solutions. After drying the leaf discs were infested with five L1 larvae. The samples were assessed for mortality, anti-feeding effect, and growth inhibition in comparison to untreated samples 3 days after infestation. Control of Spodoptera littoralis by a test sample is given when at least one of the categories mortality, anti-feedant effect, and growth inhibition is higher than the untreated sample.

[6] = tested on: Bemisia tabaci (Cotton White Fly); test: Activity against Bemisia tabaci (cotton white fly), sprayed cotton leaf discs; conditions: foliar, 144 h, application rate 200 ppm, adult white flies, 6 days after incubation
Description: Example B1: Activity Against Bemisia tabaci (Cotton White Fly)
Cotton leaf discs were placed on agar in 24-well microtiter plates and sprayed with aqueous test solutions prepared from 10,000 ppm DMSO stock solutions. After drying the leaf discs were infested with adult white flies. The samples were checked for mortality 6 days after incubation.

[7] = tested on: Frankliniella occidentalis (Western Flower Thrips); test: Activity against Frankliniella occidentalis (western flower thrips), sprayed sunflower leaf discs; conditions: foliar, 168 h, application rate 200 ppm, population of mixed ages, 7 days after infestation
Description: Example B4: Activity Against Frankliniella occidentalis (Western Flower Thrips)
as §1, with “on” for “onto”, “in” for “in a”, “plates” for “plate”, “drying” for “drying,”, “a Frankliniella” for “an aphid”, “7” for “6”

[8] = tested on: Plutella xylostella (Diamond Back Moth); test: Activity against Plutella xylostella (diamond back moth), treated artificial diet; conditions: 192 h, application rate 200 ppm, eggs, 8 days after infestation, read-out: effect in at least one of the two categories (mortality or growth inhibition)
Description: Example B5: Activity Against Plutella xylostella (Diamond Back Moth)
24-well microtiter plates with artificial diet were treated with aqueous test solutions prepared from 10,000 ppm DMSO stock solutions by pipetting. After drying, Plutella eggs were pipetted through a plastic stencil onto a gel blotting paper and the plate was closed with it. The samples were assessed for mortality and growth inhibition in comparison to untreated samples 8 days after infestation.

[9] = tested on: Carpocapsa (Cydia) Pomonella (Codling Moth); test: Activity against Carpocapsa (Cydia) pomonella (codling moth), sprayed diet cubes; conditions: 336 h, application rate 12.5 ppm, L1 larvae, 14 days after infestation, read-out: effect in at least one of the two categories (mortality or growth inhibition)
Description: Example B11: Activity Against Carpocapsa (Cydia) Pomonella (Codling Moth)
Diet cubes coated with paraffin were sprayed with diluted test solutions in an application chamber. After drying off the treated cubes (10 replicates) were infested with 1 L1 larvae. Samples were incubated at 26-27° C. and checked 14 days after infestation for mortality and growth inhibition. The following compounds gave an effect of at least 80% in at least one of the two categories (mortality or growth inhibition) at an application rate of 12.5 ppm: P1, P2, P3, P4, P5, P6, P10, P11, P12, P14, P15, P16, P17, P19, P20, P21, P22, P24, P27, P29, P30, P33, P34, P35.

[10] = tested on: Chilo suppressalis (Striped Rice Stemborer); test: Activity against Chilo suppressalis (striped rice stemborer), treated artificial diet; conditions: 144 h, application rate 200 ppm, L2 larvae, 6 days after infestation
Description: Example B10: Activity Against Chilo suppressalis (Striped Rice Stemborer)
24-well microtiter plates with artificial diet were treated with aqueous test solutions prepared from 10,000 ppm DMSO stock solutions by pipetting. After drying, the plates were infested with L2 larvae (6-8 per well). The samples were assessed for mortality, anti-feeding effect, and growth inhibition in comparison to untreated samples 6 days after infestation. Control of Chilo suppressalis by a test sample is given when at least one of the categories mortality, anti-feedant effect, and growth inhibition is higher than the untreated sample.

[11] = tested on: Tetranychus urticae (Two-Spotted Spider Mite); test: Activity against Tetranychus urticae (two-spotted spider mite), sprayed bean leaf discs; conditions: foliar, 192 h, application rate 200 ppm, mixed population (mobile stages), 8 days after infestation
Description: Example B9: Activity Against Tetranychus urticae (Two-Spotted Spider Mite)
Bean leaf discs on agar in 24-well microtiter plates were sprayed with aqueous test solutions prepared from 10,000 ppm DMSO stock solutions. After drying the leaf discs were infested with a mite population of mixed ages. The samples were assessed for mortality on mixed population (mobile stages) 8 days after infestation.

CCS(=O)(=O)c1c(N2Cc3ncc(C(F)(F)F)cc3C2=O)nc2cc(C3(C#N)CC3)ccn12 [Compound P3, 1-[3-ethylsulfonyl-2-[5-oxo-3-(trifluoromethyl)-7H-pyrrolo[3,4-b]pyridin-6-yl]imidazo [1,2-a]pyridin-7-yl] cyclopropane-carbonitrile]
≥ 80%: percent effect (mortality or growth inhibition) at 3 ppm [1] | percent effect (mortality or growth inhibition) at 200 ppm [2] | percent effect (mortality or growth inhibition) at 200 ppm [3] | mortality at 200 ppm [4] | percent control (mortality, anti-feedant effect or growth inhibition) at 200 ppm [5] | mortality at 200 ppm [6] | mortality at 200 ppm [7] | percent effect (mortality or growth inhibition) at 200 ppm [8] | percent effect (mortality or growth inhibition) at 12.5 ppm [9]

CCS(=O)(=O)c1c(N2Cc3ccc(S(=O)(=O)C(F)(F)F)cc3C2=O)nc2cc(C(F)(F)F)ccn12 [Compound P37, 2-[3-ethylsulfonyl-7-(trifluoromethyl)imidazo[1,2-a]pyridin-2-yl]-6-(trifluoromethyl-sulfonyl) isoindolin-1-one]
≥ 80%: percent effect (mortality or growth inhibition) at 3 ppm [1] | percent effect (mortality or growth inhibition) at 200 ppm [2] | percent effect (mortality or growth inhibition) at 200 ppm [3] | percent control (mortality, anti-feedant effect or growth inhibition) at 200 ppm [10] | mortality at 200 ppm [4] | percent control (mortality, anti-feedant effect or growth inhibition) at 200 ppm [5] | mortality at 200 ppm [6] | mortality at 200 ppm [7]

CCS(=O)(=O)c1c(N2Cc3ccc(OC(F)(F)F)cc3C2=O)nc2cc(C3(C#N)CC3)ccn12 [Compound P5, 1-[3-ethylsulfonyl-2-[1-oxo-6-(trifluoromethoxy)isoindolin-2-yl]imidazo[1,2-a]pyridin-7-yl] cyclopropane-carbonitrile]
≥ 80%: percent effect (mortality or growth inhibition) at 3 ppm [1] | percent effect (mortality or growth inhibition) at 200 ppm [2] | percent effect (mortality or growth inhibition) at 200 ppm [3] | mortality at 200 ppm [4] | percent control (mortality, anti-feedant effect or growth inhibition) at 200 ppm [5] | mortality at 200 ppm [6] | mortality at 200 ppm [7] | percent effect (mortality or growth inhibition) at 200 ppm [8] | percent effect (mortality or growth inhibition) at 12.5 ppm [9]

CCS(=O)(=O)c1c(N2Cc3ccc(C(F)(F)F)cc3C2=O)nc2ccc(C3(C#N)CC3)cn12 [Compound P16, 1-[3-ethylsulfonyl-2-[1-oxo-6-(trifluoromethyl)isoindolin-2-yl]imidazo[1,2-a]pyridin-6-yl] cyclopropane-carbonitrile]
≥ 80%: percent effect (mortality or growth inhibition) at 3 ppm [1] | mortality at 200 ppm [11] | percent effect (mortality or growth inhibition) at 200 ppm [2] | percent effect (mortality or growth inhibition) at 200 ppm [3] | mortality at 200 ppm [4] | percent control (mortality, anti-feedant effect or growth inhibition) at 200 ppm [5] | mortality at 200 ppm [6] | percent effect (mortality or growth inhibition) at 200 ppm [8] | percent effect (mortality or growth inhibition) at 12.5 ppm [9]

CCS(=O)(=O)c1c(N2Cc3ncc(C(F)(F)F)cc3C2=O)nc2ccc(C3(C#N)CC3)cn12 [Compound P15, 1-[3-ethylsulfonyl-2-[5-oxo-3-(trifluoromethyl)-7H-pyrrolo[3,4-b]pyridin-6-yl]imidazo [1,2-a]pyridin-6-yl] cyclopropane-carbonitrile]
≥ 80%: percent effect (mortality or growth inhibition) at 3 ppm [1] | mortality at 200 ppm [11] | percent effect (mortality or growth inhibition) at 200 ppm [2] | percent effect (mortality or growth inhibition) at 200 ppm [3] | mortality at 200 ppm [4] | percent control (mortality, anti-feedant effect or growth inhibition) at 200 ppm [5] | mortality at 200 ppm [6] | mortality at 200 ppm [7] | percent effect (mortality or growth inhibition) at 200 ppm [8] | percent effect (mortality or growth inhibition) at 12.5 ppm [9]

CCS(=O)(=O)c1c(N2Cc3ncc(C(F)(F)F)cc3C2=O)nc2ccc(C3CC3)cn12 [Compound P27, 6-(6-cyclopropyl-3-ethylsulfonyl-imidazo [1,2-a]pyridin-2-yl)-3-(trifluoromethyl)-7H-pyrrolo[3,4-b]pyridin-5-one]
≥ 80%: percent effect (mortality or growth inhibition) at 3 ppm [1] | percent effect (mortality or growth inhibition) at 200 ppm [2] | percent effect (mortality or growth inhibition) at 200 ppm [3] | percent control (mortality, anti-feedant effect or growth inhibition) at 200 ppm [10] | mortality at 200 ppm [4] | percent control (mortality, anti-feedant effect or growth inhibition) at 200 ppm [5] | mortality at 200 ppm [7] | percent effect (mortality or growth inhibition) at 200 ppm [8] | percent effect (mortality or growth inhibition) at 12.5 ppm [9]

CCS(=O)(=O)c1c(N2Cc3ccc(OC(F)(F)F)cc3C2=O)nc2ccc(C3(C#N)CC3)cn12 [Compound P14, 1-[3-ethylsulfonyl-2-[1-oxo-6-(trifluoromethoxy)isoindolin-2-yl]imidazo[1,2-a]pyridin-6-yl] cyclopropane-carbonitrile]
≥ 80%: percent effect (mortality or growth inhibition) at 3 ppm [1] | mortality at 200 ppm [11] | percent effect (mortality or growth inhibition) at 200 ppm [2] | percent effect (mortality or growth inhibition) at 200 ppm [3] | mortality at 200 ppm [4] | percent control (mortality, anti-feedant effect or growth inhibition) at 200 ppm [5] | mortality at 200 ppm [6] | mortality at 200 ppm [7] | percent effect (mortality or growth inhibition) at 200 ppm [8] | percent effect (mortality or growth inhibition) at 12.5 ppm [9]

CCS(=O)(=O)c1c(N2Cc3ccc(S(=O)(=O)C(F)(F)F)cc3C2=O)nc2cc(OCC(F)(F)F)ccn12 [Compound P33, 2-[3-ethylsulfonyl-7-(2,2,2-trifluoroethoxy)imidazo[1,2-a]pyridin-2-yl]-6-(trifluoromethylsulfonyl)isoindolin-1-one]
≥ 80%: percent effect (mortality or growth inhibition) at 3 ppm [1] | percent effect (mortality or growth inhibition) at 200 ppm [2] | percent effect (mortality or growth inhibition) at 200 ppm [3] | percent control (mortality, anti-feedant effect or growth inhibition) at 200 ppm [10] | mortality at 200 ppm [4] | percent control (mortality, anti-feedant effect or growth inhibition) at 200 ppm [5] | mortality at 200 ppm [6] | mortality at 200 ppm [7] | percent effect (mortality or growth inhibition) at 200 ppm [8] | percent effect (mortality or growth inhibition) at 12.5 ppm [9]
